Measured values from PMC8509773, “3-Pyridinylidene Derivatives of Chemically Modified Lupane and Ursane Triterpenes as Promising Anticancer Agents by Targeting Apoptosis” (International Journal of Molecular Sciences, 2021).

What was measured:
Assay in all cases: NCI-60 SRB screening (one-dose and five-dose)
Type in all cases: cell-based, human
A498 = conditions: A498, 10 μM, 48 h
Experimental: (§1) The compounds were added at a single concentration and the cell cultures were incubated for 48 h. The end point determinations were made with a protein binding dye, sulforhodamine B (SRB). […] The percentage of growth was evaluated spectrophotometrically versus controls not treated with test agents after 48-h exposure and using SRB protein assay to estimate cell viability or growth. […] Furthermore, mean graph midpoints (MG_MID) were calculated for each of the parameters, giving an average activity parameter over all cell lines for the tested compound. For the MG_MID calculation, insensitive cell lines were included with the highest concentration tested.

BT-549 = conditions: BT-549, 10 μM, 48 h
Experimental: as §1

CAKI-1 = conditions: CAKI-1, 10 μM, 48 h
Experimental: as §1

HCC-2998 = conditions: HCC-2998, 10 μM, 48 h
Experimental: as §1

HCT-15 = conditions: HCT-15, 10 μM, 48 h
Experimental: as §1

HL-60(TB) = conditions: 10 μM, 48 h
Experimental: as §1

HOP-62 = conditions: HOP-62, 10 μM, 48 h
Experimental: as §1

HOP-92 = conditions: HOP-92, 10 μM, 48 h
Experimental: as §1

HS 578T = conditions: 10 μM, 48 h
Experimental: as §1

HT29 = conditions: HT29, 10 μM, 48 h
Experimental: as §1

IGROV1 = conditions: IGROV1, 10 μM, 48 h
Experimental: as §1

K-562 = conditions: K-562, 10 μM, 48 h
Experimental: as §1

KM-12 = conditions: KM-12, 10 μM, 48 h
Experimental: as §1

LOX IMVI = conditions: 10 μM, 48 h
Experimental: as §1

M14 = conditions: M14, 10 μM, 48 h
Experimental: as §1

MCF7 = conditions: MCF7, 10 μM, 48 h
Experimental: as §1

MDA-MB-231/ATCC = conditions: 10 μM, 48 h
Experimental: as §1

MDA-MB-468 = conditions: MDA-MB-468, 10 μM, 48 h
Experimental: as §1

NCI-H226 = conditions: NCI-H226, 10 μM, 48 h
Experimental: as §1

NCI-H23 = conditions: NCI-H23, 10 μM, 48 h
Experimental: as §1

NCI-H322M = conditions: 10 μM, 48 h
Experimental: as §1

NCI-H460 = conditions: NCI-H460, 10 μM, 48 h
Experimental: as §1

NCI-H522 = conditions: NCI-H522, 10 μM, 48 h
Experimental: as §1

NCI/ADR-RES = conditions: 10 μM, 48 h
Experimental: as §1

OVCAR-3 = conditions: OVCAR-3, 10 μM, 48 h
Experimental: as §1

OVCAR-5 = conditions: OVCAR-5, 10 μM, 48 h
Experimental: as §1

OVCAR-8 = conditions: OVCAR-8, 10 μM, 48 h
Experimental: as §1

PC-3 = conditions: PC-3, 10 μM, 48 h
Experimental: as §1

RPMI-8226 = conditions: RPMI-8226, 10 μM, 48 h
Experimental: as §1

RXF 393 = conditions: RXF 393, 10 μM, 48 h
Experimental: as §1

SF-295 = conditions: SF-295, 10 μM, 48 h
Experimental: as §1

SK-MEL-28 = conditions: SK-MEL-28, 10 μM, 48 h
Experimental: as §1

SK-MEL-2 = conditions: SK-MEL-2, 10 μM, 48 h
Experimental: as §1

SK-OV-3 = conditions: SK-OV-3, 10 μM, 48 h
Experimental: as §1

SNB-19 = conditions: SNB-19, 10 μM, 48 h
Experimental: as §1

SW-620 = conditions: SW-620, 10 μM, 48 h
Experimental: as §1

TK-10 = conditions: TK-10, 10 μM, 48 h
Experimental: as §1

U251 = conditions: U251, 10 μM, 48 h
Experimental: as §1

UACC-62 = conditions: UACC-62, 10 μM, 48 h
Experimental: as §1

SR = conditions: 10 μM, 48 h
Experimental: as §1

SMILES | Growth Percent (A498) | Growth Percent (BT-549) | Growth Percent (CAKI-1) | Growth Percent (HCC-2998) | Growth Percent (HCT-15) | Growth Percent (HL-60(TB)) | Growth Percent (HOP-62) | Growth Percent (HOP-92) | Growth Percent (HS 578T) | Growth Percent (HT29) | Growth Percent (IGROV1) | Growth Percent (K-562) | Growth Percent (KM-12) | Growth Percent (M14) | Growth Percent (MCF7) | Growth Percent (MDA-MB-231/ATCC) | Growth Percent (MDA-MB-468) | Growth Percent (NCI-H226) | Growth Percent (NCI-H23) | Growth Percent (NCI-H322M) | further results
C[C@H]1[C@@H]2[C@H]3CC[C@@H]4[C@@]5(C)CC[C@H](O)C(C)(C)[C@@H]5CC[C@@]4(C)[C@]3(C)CC[C@]23CO[C@@]1(C)C(C(=O)/C=C/c1cccnc1)C3 (stereo partly drawn) [Compound 4] | 72.89% | 57.24% | 55.59% | 69.92% | 38.53% | 47.50% | 81.73% | 79.10% | 81.98% | 99.49% | 80.59% | 17.96% | 54.39% | 60.79% | 23.65% | 82.10% | 20.53% | 76.56% | 59.51% | 88.41% | Growth Percent (LOX IMVI): 51.47%; Growth Percent (NCI-H460): 40.71%; Growth Percent (NCI-H522): 37.96%; Growth Percent (NCI/ADR-RES): 78.87%; Growth Percent (OVCAR-3): 46.73%; Growth Percent (OVCAR-5): 120.62%; Growth Percent (OVCAR-8): 35.05%; Growth Percent (PC-3): 21.26%; Growth Percent (RPMI-8226): 9.55%; Growth Percent (RXF 393): 75.20%; Growth Percent (SF-295): 79.88%; Growth Percent (SK-MEL-28): 66.23%; Growth Percent (SK-MEL-2): 87.32%; Growth Percent (SK-OV-3): 77.76%; Growth Percent (SNB-19): 71.61%; Growth Percent (SW-620): 32.25%; Growth Percent (TK-10): 31.89%; Growth Percent (U251): 58.63%; Growth Percent (UACC-62): 41.49%
COC(=O)[C@]12CC[C@@H](C(C)=O)[C@@H]1[C@H]1CC[C@@H]3[C@@]4(C)C/C(=C\c5cccnc5)C(=O)C(C)(C)[C@@H]4CC[C@@]3(C)[C@]1(C)CC2 [Compound 8, Methyl 3,20-dioxo-2-(3-pyridinylidene)-29-nor-lup-28-oate] | 80.56% | 46.03% | 51.03% | 75.76% | 23.22% | −2.67% | 102.96% | 66.73% | 74.77% | 16.53% | 85.80% | 18.29% | 60.52% | 56.69% | 19.18% | 76.56% | 55.75% | 48.05% | 53.20% | 93.90% | Growth Percent (NCI-H460): 70.90%; Growth Percent (NCI-H522): 47.50%; Growth Percent (NCI/ADR-RES): 52.54%; Growth Percent (OVCAR-3): 49.04%; Growth Percent (OVCAR-5): 114.28%; Growth Percent (OVCAR-8): 38.71%; Growth Percent (PC-3): 24.42%; Growth Percent (RPMI-8226): 2.88%; Growth Percent (RXF 393): 30.89%; Growth Percent (SF-295): 75.30%; Growth Percent (SK-MEL-28): 31.54%; Growth Percent (SK-MEL-2): 68.06%; Growth Percent (SK-OV-3): 93.73%; Growth Percent (SNB-19): 67.72%; Growth Percent (SR): 12.35%; Growth Percent (SW-620): 25.33%; Growth Percent (TK-10): 132.71%; Growth Percent (U251): 56.61%; Growth Percent (UACC-62): 34.54%
